From PubChem BioAssay AID2305 (GlaxoSmithKline (GSK), 2010)
pIC50: −log10 of the molar value.

The compounds below were run on P. falciparum 3D7 growth, pLDH absorbance (assay: P. falciparum 3D7 growth inhibition, dose response, strain 3D7 (AID 2305)).
Compound COc1ccc(-c2ccc(NC(=O)c3cccc(C#N)c3)cc2)cc1CN1CCN(C)CC1 has a pIC50 of 6.15. CCOC(=O)c1cccc(N/C(N)=N/c2nc(C)cc(NCCc3ccccc3)n2)c1 was tested, and the pIC50 was 6.17. O=[N+]([O-])c1ccc(-c2nc3ccc(C4=N[C@H]5CCCC[C@H]5N4)cc3[nH]2)cc1 gave a pIC50 of 6.16. Work on CCN(CC)CCOc1ccc(C(O)(C#CC(O)(c2ccc(C)cc2)c2ccc(OCCN(CC)CC)cc2)c2ccc(C)cc2)cc1 (stereo not drawn) yielded a pIC50 of 6.05. For COc1cc2nc(NCCc3ccccc3)nc(NCCCc3ccccc3)c2cc1OC, the pIC50 was 6.80. For CCN(CC)CCN(Cc1ccc(-c2ccc(C(F)(F)F)cc2)cc1)C(=O)Cn1c(CCc2cccc(F)c2F)cc(=O)c(C)c1C, the pIC50 was 6.21. In the case of CCc1c(CCNCCCC(C)CCNCCc2ccc(OC)c(OC)c2CC)ccc(OC)c1OC (stereo not drawn), the pIC50 was 5.95. Work on O=C(/C=C/c1cccc2c1OCO2)Nc1ccnc2ccncc12 yielded a pIC50 of 6.05. Work on CCCCCCCCCCNCC(O)c1ccc(O)c(C(=O)OC)c1 (stereo not drawn) yielded a pIC50 of 6.14. With CC(c1cccc(Nc2nccc(-c3c(-c4cccc(NC(=O)c5c(F)cccc5F)c4)nn4ncccc34)n2)c1)S(C)(=O)=O (stereo not drawn) the pIC50 was 7.30. For CCN(CC)CCN1C(=O)c2oc3ccc(F)cc3c(=O)c2C1c1cccc(Cl)c1 (stereo not drawn), the pIC50 was 6.28. CCc1ccc2nc(-c3ccc(F)cc3)nc(SCC(=O)Nc3sc(C)c(C)c3C#N)c2c1 gave a pIC50 of 6.19. O=C(Nc1cccc(-c2cccc(-c3nc4ccccc4[nH]3)c2)c1)c1ccncc1 was tested, and the pIC50 was 6.32. CNCCNCc1ccc(-c2ccc(-c3nc4ccccc4[nH]3)s2)cc1 was tested, and the pIC50 was 6.07. Compound CCOc1cc(Cc2cnc(N)nc2N)cc(OCC)c1O has a pIC50 of 5.93. CCC(=O)N[C@@H]1CN[C@@H](C#Cc2cc3c(Nc4ccc(OCc5cccc(F)c5)c(Cl)c4)ncnc3s2)C1 was tested, and the pIC50 was 5.95. In the case of O=C(NCCCCN1CCN(c2cccc3c2OCCO3)CC1)c1ccc(NC(=O)c2cc(Cl)cc(Cl)c2)cc1, the pIC50 was 6.66. c1ccc(-c2nnc(-c3ccccn3)nc2NC2CCCCC2)cc1 was tested, and the pIC50 was 6.04. In the case of CC(C)CCNC(=O)c1cnc2c(O)cccc2c1Nc1cccc(NC(=O)c2ccc(F)cc2)c1, the pIC50 was 6.04. CCN(CC)CCN(Cc1ccc(-c2ccc(C(F)(F)F)cc2)cc1)C(=O)Cn1c(CCc2c(F)cc(F)cc2F)nc(=O)c2ccccc21 was tested, and the pIC50 was 5.98. For COc1ccc2nc3cc(Cl)ccc3c(NCCNCC(O)CO)c2n1 (stereo not drawn), the pIC50 was 6.82. For COC(=O)c1ccccc1N1CCN(CCCCNC(=O)c2ccc(NC(=O)c3cc(Cl)cc(Cl)c3)cc2)CC1, the pIC50 was 6.25. COc1ccc(-c2ccccc2CNC2Cc3ccccc3C2)cc1S(=O)(=O)NCCN1CCCC1 gave a pIC50 of 6.06. O=C(Nc1ccc(-c2cccc(-c3nc4ccccc4[nH]3)c2)cc1)Nc1ccc(F)c(F)c1F was tested, and the pIC50 was 6.74. CCOc1c(Br)cc(Cl)cc1CNCCCNc1nc2ccccc2[nH]1 gave a pIC50 of 6.16. For Cc1ccc(-c2csc(C)n2)c(C)c1, the pIC50 was 6.00. In the case of COc1cc2c(Nc3cccc(NC(=O)c4ccccc4)c3)ncnc2cc1OCCCN1CCOCC1, the pIC50 was 6.82. Compound CC(=O)c1c[nH]c2ccc(/C=C/C(=O)NC3CCC(CCN4CCc5ccc(C#N)cc5CC4)CC3)cc12 (stereo not drawn) has a pIC50 of 6.30. Cc1ccc(C(=O)NCC2CCN(c3ccc(C(F)(F)F)cc3NC(=O)c3ccco3)CC2)cn1 showed a pIC50 of 6.11. CCCCC(=O)NC(c1cccs1)c1cc(Cl)c2cccnc2c1O (stereo not drawn) showed a pIC50 of 6.42. Cc1cc(C)cc(OCC(O)CN(Cc2cc(Cl)cc(Cl)c2)C(=O)Nc2ccccc2Cl)c1 (stereo not drawn) showed a pIC50 of 6.03. In the case of COc1ccc(-c2ccc3c(-c4cccc(S(C)(=O)=O)c4)cnc(N)c3c2)cc1, the pIC50 was 5.88. For O=c1c2ccc(Sc3ccccn3)cc2n(-c2ccccc2)c2cc(Sc3ccccn3)ccc12, the pIC50 was 6.70. For O=C(Nc1ccc(F)c(C(F)(F)F)c1)N[C@H]1CCN(CCCCCNC(=O)[C@@H]2C[C@H]2c2ccc(Cl)c(Cl)c2)C1, the pIC50 was 6.80. In the case of COc1ccc2[nH]cc(C3=CCN(Cc4ccccc4)CC3)c2c1, the pIC50 was 6.24. Compound CC(Sc1nc2sccc2c(=O)n1C)C(=O)Nc1ccc2c(c1)OCO2 (stereo not drawn) has a pIC50 of 5.98. With COc1ccc(OCCCN2CCCCC2)cc1S(=O)(=O)c1ccc(OCc2ccc(C(F)(F)F)cc2)cc1 the pIC50 was 6.00. CN(c1cc(NC(=O)c2cccs2)ccn1)C1CCN(Cc2cccc(C#N)c2)CC1 showed a pIC50 of 5.90. With NC1CCN(c2cnn(Cc3cccc(NC(=O)Nc4ccc(-c5ccccc5)cc4)c3)c(=O)c2Cl)CC1 the pIC50 was 5.94. In the case of Cc1ccc(C(=O)NC2CCN(CCNC(=O)Nc3cc(C)nc4ccccc34)CC2)cc1, the pIC50 was 6.31. For CC(C)CCNCc1ccc(OCc2cccc(C(=O)Nc3ccccc3)c2)c(I)c1, the pIC50 was 6.54. COc1cc(C)nc2ccc(NC(=O)Nc3ccc([N+](=O)[O-])cc3C)cc12 showed a pIC50 of 6.22. In the case of O=C(Nc1ccc(-n2ccc(C(F)(F)F)n2)cc1)c1cccs1, the pIC50 was 5.97. CCOc1ccc(-c2nonc2NC(=O)c2ccc(F)cc2)cc1OCC was tested, and the pIC50 was 6.48. For CCCCCCN1CCC(NCc2cccc(C(F)(F)F)c2)CC1, the pIC50 was 6.60. Cn1nc(C(=O)N2CCC(c3[nH]ncc3Cc3ccccc3)CC2)c2ccccc2c1=O was tested, and the pIC50 was 6.52. O=C(NC1CCC(N2CCN(c3cccc4[nH]ccc34)CC2)CC1)c1cc2cccnc2[nH]1 (stereo not drawn) was tested, and the pIC50 was 6.31. COc1ccccc1C(=O)Nc1cccc(N2CCC(NCc3ccc(-n4cccn4)cc3)CC2)c1 gave a pIC50 of 5.92. In the case of COc1cc(NC(=O)N2CCOC(CCN3CCC4(CCc5ccccc54)CC3)(c3ccc(Cl)c(Cl)c3)C2)cc(OC)c1OC (stereo not drawn), the pIC50 was 6.80. Work on COc1ccc(-c2cc(C(=O)N[C@@H](CC3CCCCC3)C(=O)NCCN3CCCC3)ccc2O)cc1 yielded a pIC50 of 6.06. In the case of CN1CCC[C@H]1COc1ccc(CN2CC[C@H](NC(=O)c3ccc(Cl)c(Cl)c3)C2)c2ccccc12, the pIC50 was 6.02. COc1cc(Nc2nccc(N3CCC(NC(=O)C4COc5ccccc5O4)C3)n2)cc(OC)c1OC (stereo not drawn) showed a pIC50 of 6.04. In the case of O=C(CC1NC(=O)c2ccccc21)Nc1ccc(-c2cccc(-c3nc4ccc(C(F)(F)F)cc4[nH]3)c2)cc1 (stereo not drawn), the pIC50 was 6.02. In the case of Cc1cc(Nc2ncc(Cl)c(Nc3ccccc3C(N)=O)n2)n[nH]1, the pIC50 was 6.09. In the case of Cc1nc(-c2nc(N3CCOCC3)ncc2-c2ccsc2)sc1C, the pIC50 was 6.49. For COc1ccc(Nc2ncc(OC)c(Nc3ccccc3C(N)=O)n2)cc1N1CCN(C)CC1, the pIC50 was 6.13. Work on O=C(Nc1ccc(-c2ccccc2)cc1)Nc1cccc(Cn2cnc(N3CCCNCC3)cc2=O)c1 yielded a pIC50 of 5.97. Cn1nc(C(F)(F)F)c(-c2ccc(F)cc2)c1NC(=O)Nc1ccc(F)cc1F showed a pIC50 of 6.12. CCCc1cc(=O)[nH]c(-n2nc(C)cc2NC(=O)C(CC)c2ccccc2)n1 (stereo not drawn) showed a pIC50 of 6.03. With CN(CCN)Cc1ccc(-c2ccc(-c3nc4ccc(C(F)(F)F)cc4[nH]3)s2)cc1 the pIC50 was 6.21. Cc1nnsc1C(=O)Nc1cccc(-c2ccc(-c3nc4ccc(F)cc4[nH]3)s2)c1 showed a pIC50 of 6.05. CN1CCN(Cc2ccc(-c3ccc4c(Nc5ccc(Cl)cc5F)ccnc4c3)o2)CC1 was tested, and the pIC50 was 6.82. For CN(C)CCOc1cc(NC(=O)Nc2ccc(-c3ccncc3)c(C(F)(F)F)c2)ccc1Cl, the pIC50 was 6.00. In the case of CCN(CC)CCNc1ccnc2[nH]c3ccc(I)cc3c12, the pIC50 was 6.64. Work on O=c1c(Br)c(C(F)(F)F)[nH]c2ccc(Oc3ccccc3)cc12 yielded a pIC50 of 5.96. Compound C=CC[C@@H](C(=O)OCC)[C@@H]1[C@@H](N(CC=C)C(=O)OC(C)(C)C)CCN1C(=O)OCc1ccccc1 has a pIC50 of 6.02. CCOc1cc(Cc2cnc(N)nc2N)cc(Br)c1OC gave a pIC50 of 5.84. CC(C)NCc1cccc(-c2ccc(NC(=O)c3ccc(F)cc3)cc2)c1 gave a pIC50 of 6.07. O=C(/C=C/c1ccc(Cl)c(Cl)c1)NCCCCCN1CCCN(C(=O)Nc2ccc(F)c(Cl)c2)CC1 showed a pIC50 of 6.10. For CC(C)(C)OC(=O)NCc1ccc(Nc2nnc(-c3cccc(C(=O)NCCC(c4ccccc4)c4ccccc4)c3)o2)cc1, the pIC50 was 6.24. c1cc(CNCC2CCN(CC3CCCCC3)CC2)cc(-n2ccnc2)c1 gave a pIC50 of 6.27. CN(C)c1ccc(CN2CCC(NC(=O)c3ccc(-c4cccc(C(F)(F)F)c4)s3)CC2)cc1 was tested, and the pIC50 was 5.94. CC(=O)c1ccc(NC(=O)Nc2ccc(N(C)c3ccnc(NC4CC4)n3)cc2)cc1 gave a pIC50 of 6.10. With COc1cc(C)c(C(O)CNC(C)CCc2ccccc2)cc1C (stereo not drawn) the pIC50 was 6.14. In the case of Oc1ccc(-c2nc(-c3ccc4oc5ccc(-c6[nH]c(-c7ccc(O)cc7)nc6-c6ccccc6)cc5c4c3)c(-c3ccccc3)[nH]2)cc1, the pIC50 was 5.95. With COc1ccc2nc(C)cc(NN=Cc3ccncc3)c2c1 the pIC50 was 6.15. With O=C(NN=Cc1nc2ccccc2[nH]1)c1cccc([N+](=O)[O-])c1 the pIC50 was 6.20. In the case of Fc1ccc(-c2nc(NCc3cccc(C(F)(F)F)c3)nn2-c2cccc(C(F)(F)F)c2)cc1C(F)(F)F, the pIC50 was 5.98. C#CCCOc1ccc2ccccc2c1CNCCCCCCNCc1c(OCCC#C)ccc2ccccc12 gave a pIC50 of 6.09. For O=C(O)C[C@H](NC(=O)CCCNC(=O)c1cccc(-c2ccc(Cl)c(Cl)c2)c1)C(=O)O, the pIC50 was 6.06. NCC1CCCN1Cc1ccc(-c2ccc(-c3nc4ccccc4[nH]3)s2)cc1 (stereo not drawn) gave a pIC50 of 6.03. For COc1ccc(CNC2Cc3ccccc3C2)cc1-c1ccc(S(=O)(=O)NCCN2CCCC2)cc1, the pIC50 was 6.24. Cc1cccc2sc(N(CCCn3ccnc3)C(=O)C=Cc3cccs3)nc12 was tested, and the pIC50 was 5.89. O=C(Cc1cc(=O)oc2cc(O)ccc12)NC1CCC(CN2CCC(c3c[nH]c4ccccc34)CC2)CC1 (stereo not drawn) gave a pIC50 of 5.95. O=C(NCCCN1CCCC1=O)NCc1ccccc1 gave a pIC50 of 6.09. O=C(Nc1nc2cc(S(=O)(=O)NCc3ccc(Cl)c(Cl)c3)ccc2n1CCCN1CCCC1)c1ccc(Cl)cc1 was tested, and the pIC50 was 6.03. CC[C@H]1CN2CC[C@@H]1C[C@H]2[C@H](O)c1cc(-c2ccc(Cl)c(Cl)c2)nc2ccc(O)cc12 gave a pIC50 of 6.59. In the case of Cc1cc(N2CCCN(C)CC2)nc(Nc2ccc(Cl)cc2)n1, the pIC50 was 6.10. Work on O=C(NCCNc1ccnc(Nc2ccc(F)cc2)n1)c1cc2ccccc2s1 yielded a pIC50 of 6.12. COc1cc(CCNc2nc(NCc3ccccc3-c3ccccc3)nc(N3CCC(N)CC3)n2)ccc1O was tested, and the pIC50 was 6.09. COc1ccc2nccc([C@@H](O)CN3CCC(NCc4ccc5c(c4)oc(=S)n5C)CC3)c2c1 was tested, and the pIC50 was 6.72. For FC(F)(F)c1cccc(Nc2nc3ccccc3nc2Nc2cccc(C(F)(F)F)c2)c1, the pIC50 was 6.85. O=C(NCc1ccc(Cl)c(Cl)c1)c1ccc(-c2nc3cc(F)c(F)cc3[nH]2)cc1 showed a pIC50 of 5.98. With Cc1nc(N)nc(N)c1-c1ccc(Br)cc1 the pIC50 was 6.64. Compound COc1ccc(C(O)CNC(C)CCc2ccc(F)cc2)cc1C(F)(F)F (stereo not drawn) has a pIC50 of 6.12. For Cc1nc(-c2cccc(Nc3nccc(NCC(O)c4cccc(F)c4)n3)c2)cs1 (stereo not drawn), the pIC50 was 6.15. CC1CN(Cc2cccc(F)c2)CCN1c1ccc(NC(=O)c2ccc(F)cc2)cc1 (stereo not drawn) was tested, and the pIC50 was 6.24. Nc1nc2cccc3ccc4cccc1c4c32 was tested, and the pIC50 was 6.04.
